Read-outs that look alike come from different tables or passages of the source.
Experiment: Human coffee intervention study: plasma concentrations after roasted coffee brew by UPLC-MS/MS
Format: in vivo
Details: for samples above the LLOQ: n = 10; for concentration at 1 h / concentration at 4 h / concentration at 10 h: human, plasma
Protocol: The study included ten volunteers (5 females, 5 males) (age: 28.3 ± 2.3 years; BMI: 21.89 ± 2.22 kg/m^2). The intervention study took place from November 5, 2021, to February 17, 2022, in the core facility human studies of the ZIEL Institute for Food and Health of the Technical University of Munich. The study was performed in agreement with the Declaration of Helsinki, and all participants gave written informed consent. The study was approved by the Ethics Committee of the Technical University of Munich (5798/13 S-SR) and registered in the German Register of Clinical Studies (DRKS00005083).
The study participants underwent a dietary protocol that excluded all forms of coffee consumption. Additionally, chocolate, black/green/white, mate tea, cola, energy drinks, and beauty products containing caffeine (e.g., shampoos, creams) were prohibited 1 week before the test day. Furthermore, the study participants received a standardized meal the evening before the test day. The meal was composed of pasta, margarine, and salt, and the amount of energy was calculated based on the participant’s basal energy demand. On the morning of the test day, the participants were in a fastened state and received water (control samples) or coffee brew (coffee intervention) as breakfast. Blood was sampled before coffee intake (0 h) and at defined time points (1, 4, and 10 h) after coffee intake. 6 h after the coffee intake, the participants received lunch, the same standardized meal as the previous dinner. The administered coffee was prepared from a coffee capsule (Nespresso, ROMA) with 100 mL water. The administered volume of the coffee brew was 200 mL. Based on the coffee powder per capsule ([…]), the concentrations of 2 (2.8 μmol/g) and 3 (1.1 μmol/g), respectively,[10] and an estimated extraction rate of 100%, the total ingested amounts were 33.6 μmol (2) and 13.2 μmol (3).
In an Eppendorf tube (1.5 mL), aliquots (50 μL each) of the calibration standard, sample, or QC, respectively, were mixed with the IS solution (1000 nM in ethanol, 50 μL) and acetonitrile/ethanol (9 + 1, v + v, 50 μL) was added. After vortexing, suspensions were cleared by centrifugation (12,000 rpm, 4 °C, 10 min), and the supernatant (∼100 μL) was transferred to an HPLC vial with 200 μL insert for analysis (5 μL injection).
The UPLC–MS/MS system consisted of a Shimadzu Nexera X2 UPLC system (Shimadzu, Duisburg, Germany) hyphenated to a QTrap 5500 MS/MS system (Sciex, Darmstadt, Germany) operating in negative electrospray (ESI^–) mode with the following ion source parameters: ion spray voltage: −4500 V; source temperature: 500 °C; nebulizer gas: 55 psi; heater gas: 65 psi; and curtain gas: 35 psi. The MS/MS parameters, including the collision cell entrance potential (CEP), declustering potential (DP), collision energy (CE), and cell exit potential (CXP), were tuned for each compound and mass transition and are summarized in Supporting Table S3. The dwell time for each compound was 30 ms, and the total cycle time was 0.75 s. Chromatographic separation was achieved on a C18 column (Kinetex C18, 100 mm × 2.1 mm, 1.7 μm, Phenomenex, Aschaffenburg, Germany) at a flow rate of 500 μL/min flow rate. Eluent A was 0.1% formic acid in water, and eluent B was 0.1% formic acid in acetonitrile. B was kept at 3% (1 min), increased to 25% (in 3 min), 90% (in 2 min, 1 min isocratic), and 3% (0.5 min, 2.5 min isocratic). The total time of the analysis was 10 min. The column effluent was introduced from the waste to the MS/MS system between 3 and 7 min.
We applied this method to human plasma samples from a coffee intervention study to investigate the appearance of coffee compounds 1–3 and metabolites M1–M3. Ten participants underwent a washout period (7 days) and then consumed one dose of […]. Blood samples were taken at baseline (0 h) and 1, 4, and 10 h after the intervention. […]

C=C1C2CCC3C4(C)CC(O)CC(C(=O)OC5OC(C(=O)O)C(O)C(O)C5O)C4CCC3(C2)C1O [M1, atractyligenin-19-O-β-D-glucuronide]
plasma level at baseline (0 h, before coffee intake, human plasma): no peaks were detected | plasma concentration, mean ± SD (4 h after coffee brew (200 mL), human plasma, values above LLOQ): 11.7 ± 10.7 nM | samples above the LLOQ (4 h after coffee): 80% | plasma concentration, mean ± SD (10 h after coffee brew (200 mL), human plasma, values above LLOQ): 13.1 ± 5.8 nM | samples above the LLOQ (10 h after coffee): 90% | concentration at 1 h (both sexes, oral, 200 mL, 1 h after coffee brew (200 mL), human plasma, values above LLOQ, read-out: plasma concentration, mean ± SD): 25.1 ± 4.9 nM | concentration at 4 h (both sexes, oral, 200 mL, 4 h after coffee brew (200 mL), human plasma, values above LLOQ, read-out: plasma concentration, mean ± SD): 14.2 ± 10.5 nM | concentration at 10 h (both sexes, oral, 200 mL, 10 h after coffee brew (200 mL), human plasma, values above LLOQ, read-out: plasma concentration, mean ± SD): 14.4 ± 4.4 nM | Cmax (both sexes, oral, human plasma after coffee brew (200 mL), n = 10, mean ± SD, read-out: estimated cmax in plasma): 25.1 ± 4.9 nM | time of estimated cmax (human plasma after coffee brew (200 mL), sampling only at 0, 1, 4, 10 h): 1 h | concentration at 4 h (oral, 200 mL coffee brew, participant xrwz, 4 h after coffee, b = below LLOQ, read-out: plasma concentration, individual): 1.7 nM | concentration at 1 h (oral, 200 mL, participant ayia, 1 h after coffee, read-out: plasma concentration, individual): 16.4 nM | concentration at 4 h (oral, 200 mL, participant ayia, 4 h after coffee, b = below LLOQ, read-out: plasma concentration, individual): 1.7 nM | concentration at 10 h (oral, 200 mL, participant ayia, 10 h after coffee, read-out: plasma concentration, individual): 17.2 nM | concentration at 1 h (oral, 200 mL, participant cbdu, 1 h after coffee, b = below LLOQ, read-out: plasma concentration, individual): 24.6 nM | concentration at 4 h (oral, 200 mL, participant cbdu, 4 h after coffee, read-out: plasma concentration, individual): 2.9 nM | concentration at 10 h (oral, 200 mL, participant cbdu, 10 h after coffee, read-out: plasma concentration, individual): 17.8 nM | concentration at 1 h (oral, 200 mL, participant eogo, 1 h after coffee, b = below LLOQ, read-out: plasma concentration, individual): 30 nM | concentration at 4 h (oral, 200 mL, participant eogo, 4 h after coffee, b = below LLOQ, read-out: plasma concentration, individual): 4.6 nM | concentration at 10 h (oral, 200 mL, participant eogo, 10 h after coffee, b = below LLOQ, read-out: plasma concentration, individual): 12.3 nM | concentration at 1 h (oral, 200 mL, participant ggot, 1 h after coffee, read-out: plasma concentration, individual): 32.2 nM | concentration at 4 h (oral, 200 mL, participant ggot, 4 h after coffee, b = below LLOQ, read-out: plasma concentration, individual): 9.7 nM | concentration at 10 h (oral, 200 mL, participant ggot, 10 h after coffee, b = below LLOQ, read-out: plasma concentration, individual): 1.7 nM | concentration at 1 h (oral, 200 mL, participant imhz, 1 h after coffee, read-out: plasma concentration, individual): 30.6 nM | concentration at 4 h (oral, 200 mL, participant imhz, 4 h after coffee, read-out: plasma concentration, individual): 10.5 nM | concentration at 10 h (oral, 200 mL, participant imhz, 10 h after coffee, read-out: plasma concentration, individual): 21.5 nM | concentration at 1 h (oral, 200 mL, participant mgjj, 1 h after coffee, read-out: plasma concentration, individual): 23.6 nM | concentration at 4 h (oral, 200 mL, participant mgjj, 4 h after coffee, read-out: plasma concentration, individual): 12.4 nM | concentration at 10 h (oral, 200 mL, participant mgjj, 10 h after coffee, read-out: plasma concentration, individual): 17.5 nM | concentration at 1 h (oral, 200 mL, participant rrmk, 1 h after coffee, read-out: plasma concentration, individual): 22 nM | concentration at 4 h (oral, 200 mL, participant rrmk, 4 h after coffee, b = below LLOQ, read-out: plasma concentration, individual): 19.7 nM | concentration at 10 h (oral, 200 mL, participant rrmk, 10 h after coffee, read-out: plasma concentration, individual): 14.4 nM | concentration at 1 h (oral, 200 mL, participant wbqj, 1 h after coffee, b = below LLOQ, read-out: plasma concentration, individual): 27.5 nM | concentration at 4 h (oral, 200 mL, participant wbqj, 4 h after coffee, b = below LLOQ, read-out: plasma concentration, individual): 36 nM | concentration at 10 h (oral, 200 mL, participant wbqj, 10 h after coffee, b = below LLOQ, read-out: plasma concentration, individual): 8.5 nM | concentration at 1 h (oral, 200 mL, participant wbvs, 1 h after coffee, read-out: plasma concentration, individual): 23.8 nM | concentration at 4 h (oral, 200 mL, participant wbvs, 4 h after coffee, read-out: plasma concentration, individual): 17.8 nM | concentration at 10 h (oral, 200 mL, participant wbvs, 10 h after coffee, read-out: plasma concentration, individual): 9.7 nM | concentration at 1 h (oral, 200 mL, participant xrwz, 1 h after coffee, read-out: plasma concentration, individual): 20.2 nM | concentration at 10 h (oral, 200 mL, participant xrwz, 10 h after coffee, b = below LLOQ, read-out: plasma concentration, individual): 10.5 nM | participants in whom plasma concentration increased between 4 and 10 h (individual plots, after first maximum at 1 h): 60%

From paper PMC10722499, “Consumption of Roasted Coffee Leads to Conjugated Metabolites of Atractyligenin in Human Plasma” (Journal of Agricultural and Food Chemistry, 2023)
